The nature of series [1]: Tolerability in CD1 mice: body weight and organ weight (Example 43). The format is in vivo. The settings on record: 50 mg/kg s.c. twice per week for 6 weeks, at the end of the study. The source says:
The body weights of the mice taken at the end of the study are presented in Table 104 and are expressed in grams.

A short description of series [2]: Tolerability in CD1 mice: kidney function (Example 43). The format is in vivo. The settings on record: 50 mg/kg s.c. twice per week for 6 weeks, plasma.
The nature of series [3]: Tolerability in Sprague-Dawley rats: kidney function (Example 44). The settings on record: 50 mg/kg s.c. twice per week for 6 weeks; for BUN / Creatinine: plasma. The format is in vivo.
Series [4] is described as follows: Tolerability in CD1 mice: body weight and organ weight (Example 43). The format is in vivo. The settings on record: 50 mg/kg s.c. twice per week for 6 weeks, end of study.
For series [5], the system named is human Factor 11 mRNA. Kind of series: Dose-dependent inhibition of human Factor 11 in HepG2 cells, electroporation 375-12,000 nM (Example 32). The class given is cell-based. The essentials: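 HepG2 cells (20,000/well) electroporated with gapmer antisense oligonucleotides at 375, 750, 1,500, 3,000, 6,000 and 12,000 nM, then treated ~16 h. mRNA quantified by qRT-PCR (primer probe set RTS 2966), normalized to RIBOGREEN total RNA; % inhibition relative to untreated cells.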

Strand notation (5' to 3'): a small letter for the sugar, then the base; units joined by * are phosphorothioate-linked, units joined directly phosphodiester-linked; [ ] holds rarer units or linkages, { } end groups; capitals alone tell only the bases. e = 2'-O-(2-methoxyethyl) (MOE); [5mC] = 5-methylcytosine; d = 2'-deoxy (DNA)

“ISIS 449709: 3-8-3, 4-8-4, 2-10-2, 3-10-3 or 4-10-4 MOE microwalk gapmer (Table 46) (antisense eG*e[5mC]*eA*e[5mC]*dA*dG*dT*dT*dT*d[5mC]*dT*dG*dG*d[5mC]*eA*eG*eG*e[5mC])” yielded a body weight in series [1] of 40 g. In series [2], this substance returned a BUN of 34 mg/dL and a Creatinine of 0.3 mg/dL. In addition, in series [3], the BUN is 24 mg/dL, the Creatinine came out at 0.4 mg/dL and the Urine protein/creatinine ratio amounted to 3.4. In addition, in series [4], the “Change in Kidney weight” value was −14%, the “Change in Liver weight” value is “+15%” and the “Change in Spleen weight” value is listed as “+62%”.
The IC50 is the concentration at which inhibition is half-maximal. With “416858 (antisense ACGGCATTGGTGCACAGTTT; 5-10-5 gapmer, further chemistry not given here) [compound 416858]”, the “Percent inhibition of Factor 11 mRNA at 375 nM” value in series [5] (electroporation, 375 nM, approx. 16 hours, relative to untreated control cells) came to 31%. The “Percent inhibition of Factor 11 mRNA at 750 nM” value in series [5] (electroporation, 750 nM, approx. 16 hours, relative to untreated control cells) is 35%. In addition, in series [5] (electroporation, 1,500 nM, approx. 16 hours, relative to untreated control cells), the “Percent inhibition of Factor 11 mRNA at 1,500 nM” value was determined as 78%. Further, the “Percent inhibition of Factor 11 mRNA at 3,000 nM” value in series [5] (electroporation, 3,000 nM, approx. 16 hours, relative to untreated control cells) is listed as 85%. The “Percent inhibition of Factor 11 mRNA at 6,000 nM” value in series [5] (electroporation, 6,000 nM, approx. 16 hours, relative to untreated control cells) was 90%. Moreover, the “Percent inhibition of Factor 11 mRNA at 12,000 nM” value in series [5] (electroporation, 12,000 nM, approx. 16 hours, relative to untreated control cells) is 93%. For the same substance, in series [5] (electroporation, Factor 11 mRNA expression), the IC50 came to 830 nM.
Turning to “ISIS 449708: 3-8-3, 4-8-4, 2-10-2, 3-10-3 or 4-10-4 MOE microwalk gapmer (Table 46) (antisense eA*e[5mC]*eA*dG*dT*dT*dT*d[5mC]*dT*dG*dG*e[5mC]*eA*eG)”, the body weight in series [1] was 40 g. Also, in series [2], the BUN amounted to 28 mg/dL and the Creatinine is 0.2 mg/dL. In addition, in series [3], the BUN was 24 mg/dL, the Creatinine amounted to 0.4 mg/dL and the Urine protein/creatinine ratio is on record as 5.7. In series [4], the “Change in Kidney weight” value was determined as 0%, the “Change in Liver weight” value is listed as “+17%” and the “Change in Spleen weight” value was “+66%”.
With “ISIS 449707: 3-8-3, 4-8-4, 2-10-2, 3-10-3 or 4-10-4 MOE microwalk gapmer (Table 46) (antisense e[5mC]*eA*e[5mC]*eA*dG*dT*dT*dT*d[5mC]*dT*dG*dG*e[5mC]*eA*eG*eG)”, the body weight in series [1] was 42 g. In series [2], this substance registered a BUN of 27 mg/dL and a Creatinine of 0.2 mg/dL. Moreover, in series [3], the BUN was found to be 24 mg/dL, the Creatinine is reported as 0.4 mg/dL and the Urine protein/creatinine ratio is listed as 3.2. In series [4], the “Change in Kidney weight” value was −5%, the “Change in Liver weight” value is on record as “+11%” and the “Change in Spleen weight” value was “+63%”.
“ISIS 449710: 3-8-3, 4-8-4, 2-10-2, 3-10-3 or 4-10-4 MOE microwalk gapmer (Table 46) (antisense e[5mC]*eA*e[5mC]*dA*dG*dT*dT*dT*d[5mC]*dT*dG*dG*d[5mC]*eA*eG*eG)” registered a body weight in series [1] of 42 g. In addition, in series [2], the BUN is recorded as 29 mg/dL and the Creatinine is 0.2 mg/dL. In series [3], the BUN is listed as 29 mg/dL, the Creatinine amounted to 0.3 mg/dL and the Urine protein/creatinine ratio turned out to be 5.9. In series [4], the “Change in Kidney weight” value was −7%, the “Change in Liver weight” value is “+6%” and the “Change in Spleen weight” value is “+43%”.
In series [1], “ISIS 449711: 3-8-3, 4-8-4, 2-10-2, 3-10-3 or 4-10-4 MOE microwalk gapmer (Table 46) (antisense eA*e[5mC]*dA*dG*dT*dT*dT*d[5mC]*dT*dG*dG*d[5mC]*eA*eG)” showed a body weight of 42 g. Further, in series [2], the BUN was 26 mg/dL and the Creatinine worked out at 0.2 mg/dL. Further, in series [3], the BUN is 28 mg/dL, the Creatinine turned out to be 0.4 mg/dL and the Urine protein/creatinine ratio turned out to be 7.3. Further, in series [4], the “Change in Kidney weight” value is −12%, the “Change in Liver weight” value is “+18%” and the “Change in Spleen weight” value is given as “+63%”.

For the origin of these results see US20230263822A1, “MODULATION OF FACTOR 11 EXPRESSION” (Ionis Pharmaceuticals, Inc., priority 2008, published 2023).
